Patent US9120749B2, “Quinoline derivatives and MELK inhibitors containing the same” (ONCOTHERAPY SCIENCE, INC., priority 2010, dated 2015)
Structures can show the parent of a compound that is named as a salt. Where two headings read alike, the source gives them in different places.

Experiments:
MELK = MELK (Homo sapiens, UniProt Q14680); assay: Kinase assay: MELK activity, phosphorylation of FITC-labeled histone H3 peptide measured by IMAP fluorescence polarization; format: biochemical; conditions: 50 micro-M ATP, FITC-labeled histone H3 peptide substrate, IMAP fluorescence polarization, read-out: IC50 (μM) (kinase assay)
Chain of MELK (Q14680 whole entry, looked up): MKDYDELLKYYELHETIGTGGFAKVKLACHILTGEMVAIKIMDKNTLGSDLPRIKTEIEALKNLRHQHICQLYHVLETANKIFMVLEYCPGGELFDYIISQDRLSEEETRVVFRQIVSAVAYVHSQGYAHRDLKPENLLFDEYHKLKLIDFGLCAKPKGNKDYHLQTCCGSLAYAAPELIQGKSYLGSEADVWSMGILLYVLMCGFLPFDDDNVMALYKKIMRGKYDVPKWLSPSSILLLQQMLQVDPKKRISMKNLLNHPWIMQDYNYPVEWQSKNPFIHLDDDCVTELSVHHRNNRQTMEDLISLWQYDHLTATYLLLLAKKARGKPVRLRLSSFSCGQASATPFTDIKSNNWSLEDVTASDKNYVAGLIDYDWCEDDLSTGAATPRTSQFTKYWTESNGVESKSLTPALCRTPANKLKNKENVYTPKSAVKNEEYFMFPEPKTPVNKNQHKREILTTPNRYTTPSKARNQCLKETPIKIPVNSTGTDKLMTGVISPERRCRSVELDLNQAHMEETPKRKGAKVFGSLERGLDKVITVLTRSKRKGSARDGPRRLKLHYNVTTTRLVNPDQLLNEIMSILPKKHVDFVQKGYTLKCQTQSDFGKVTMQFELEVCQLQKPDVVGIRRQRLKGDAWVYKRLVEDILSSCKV
Summary of the method: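 Kinase reactions ran with or without test compound (final DMSO 1%) on a fluorescein-tagged H3 peptide. Progressive binding solution was added to terminate them. After a half-hour room-temperature incubation, polarization was measured.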

BT-549 cells = assay: Cell-based assay: anti-proliferative activity, Cell Counting Kit-8, 72 hours (BT-549); conditions: BT549 cells, MELK-expressing, Cell Counting Kit-8 at 72 hours
Summary of the method: (§1)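 First, lysates underwent western blotting with anti-MELK antibody to establish expression. Next, cells went into 96-well plates. Then candidate inhibitors were added. Finally, viability was determined by CCK-8 at 72 h and IC50 computed.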

T47D cells = assay: Cell-based assay: anti-proliferative activity, Cell Counting Kit-8, 72 hours (T47D); conditions: MELK-expressing, Cell Counting Kit-8 at 72 hours
Summary of the method: as §1

A549 cells = assay: Cell-based assay: anti-proliferative activity, Cell Counting Kit-8, 72 hours (A549); conditions: MELK-expressing, Cell Counting Kit-8 at 72 hours
Summary of the method: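 Cell Counting Kit-8 read-out of A549 growth after 72 hours of inhibitor exposure, cells plated in 96-well format. Values reported as IC50.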

HT-1197 cells = assay: Cell-based assay: anti-proliferative activity, Cell Counting Kit-8, 72 hours (HT-1197, negative control without MELK expression); conditions: HT1197 cells, no MELK expression (negative control), Cell Counting Kit-8 at 72 hours
Summary of the method: as §1

Compound | IC50 (MELK; dihydrochloride) [µM] | IC50 (BT-549 cells; dihydrochloride) [µM] | IC50 (T47D cells; dihydrochloride) [µM] | IC50 (A549 cells; dihydrochloride) [µM] | IC50 (HT-1197 cells; dihydrochloride) [µM] | IC50 (MELK) [µM] | IC50 (BT-549 cells; Homo sapiens, BT-549, 72 h) [µM] | IC50 (T47D cells; Homo sapiens, T47D, 72 h) [µM] | IC50 (A549 cells; Homo sapiens, A549, 72 h) [µM] | IC50 (HT-1197 cells; Homo sapiens, HT1197, 72 h) [µM]
N[C@H]1CC[C@H](Nc2c(C(=O)C3CC3)cnc3ccc(-c4cc(Cl)c(O)c(Cl)c4)cc23)CC1 [Example 157(b), {4-[trans-4-Aminocyclohexylamino]-6-(3,5-dichloro-4-hydroxyphenyl)quinolin-3-yl}(cyclopropyl)methanone dihydrochloride] | 0.003 | 0.31 | 0.096 | 0.3 | 4.7 |  |  |  |  | 
N[C@H]1CC[C@@H](Nc2c(C(=O)C3CC3)cnc3ccc(-c4cc(F)c(O)c(F)c4)cc23)CC1 [Example 180, [4-(cis-4-Aminocyclohexylamino)-6-(3,5-difluoro-4-hydroxyphenyl)quinolin-3-yl](cyclopropyl)methanone] |  |  |  |  |  | 0.0026 | 0.3 | 0.17 | 0.9 | 4.5
N#Cc1ncc(-c2ccc3ncc(C(=O)C4CC4)c(N[C@H]4CC[C@H](N)CC4)c3c2)cn1 [Example 96, 5-{4-[trans-4-Aminocyclohexylamino]-3-(cyclopropanecarbonyl)quinolin-6-yl}pyrimidine-2-carbonitrile] |  |  |  |  |  | 0.0024 | 0.93 | 0.29 | 1.3 | 1.5
CC(C)C(=O)c1cnc2ccc(-c3cc(F)c(O)c(F)c3)cc2c1N[C@H]1CC[C@H](N)CC1 [Example 214, 1-{4-[trans-4-Aminocyclohexylamino]-6-(3,5-difluoro-4-hydroxyphenyl)quinolin-3-yl}-2-methylpropan-1-one] |  |  |  |  |  | 0.043 | 0.084 | 0.048 | 0.65 | 1.4
COc1cc(-c2ccc3ncc(C(=O)C4CC4)c(N[C@H]4CC[C@H](N5CCCC5)CC4)c3c2)cc(Cl)c1O [Example 343, {6-(3-Chloro-4-hydroxy-5-methoxyphenyl)-4-[trans-4-(pyrrolidin-1-yl)cyclohexylamino]quinolin-3-yl}(cyclopropyl)methanone] |  |  |  |  |  | 0.0021 | 0.68 | 0.33 | 0.2 | 3.4
CC(=O)c1cnc2ccc(-c3cc(F)c(O)c(F)c3)cc2c1N[C@H]1CC[C@H](N)CC1 [Example 258, 1-{4-[trans-4-Aminocyclohexylamino]-6-(3,5-difluoro-4-hydroxyphenyl)quinolin-3-yl}ethanone] |  |  |  |  |  | 0.04 | 0.16 | 0.071 | 0.85 | 100
COc1cc(-c2ccc3ncc(S(C)(=O)=O)c(N4CCC(C(C)N(C)C)CC4)c3c2)cc(Cl)c1O (centres unmarked) [Example 245, 2-Chloro-4-[4-{4-[1-(dimethylamino)ethyl]piperidin-1-yl}-3-(methylsulfonyl)quinolin-6-yl]-6-methoxyphenol] |  |  |  |  |  | 0.0016 | 0.74 | 0.35 | 0.25 | 2.3
CC(=O)c1cnc2ccc(-c3cc(F)c(O)c(Cl)c3)cc2c1N1CCC(CN2CCCC2)CC1 [Example 336, 1-{6-(3-Chloro-5-fluoro-4-hydroxyphenyl)-4-[4-(pyrrolidin-1-ylmethyl)piperidin-1-yl]quinolin-3-yl}ethanone] |  |  |  |  |  | 0.0069 | 0.85 | 0.33 | 0.8 | 5
N[C@H]1CC[C@H](Nc2c(C(=O)C3CC3)cnc3ccc(-c4ccc5[nH]cnc5c4)cc23)CC1 [Example 116, {4-[trans-4-Aminocyclohexylamino]-6-(1H-benzo[d]imidazol-5-yl)quinolin-3-yl}(cyclopropyl)methanone] |  |  |  |  |  | 0.018 | 5.7 | 1.8 | 13 | 15
CC(C1CCN(c2c(S(C)(=O)=O)cnc3ccc(-c4ccc(O)c(Cl)c4)cc23)CC1)N(C)C (centres unmarked) [Example 246, 2-Chloro-4-[4-{4-[1-(dimethylamino)ethyl]piperidin-1-yl}-3-(methylsulfonyl)quinolin-6-yl]phenol] |  |  |  |  |  | 0.01 | 0.72 | 0.18 | 0.35 | 1.2
COc1cc(-c2ccc3ncc(C(=O)C4CC4)c(N[C@H]4CC[C@H](N)CC4)c3c2)ccc1O [Example 81, {4-[trans-4-Aminocyclohexylamino]-6-(4-hydroxy-3-methoxyphenyl)quinolin-3-yl}(cyclopropyl)methanone] |  |  |  |  |  | 0.007 | 0.55 | 0.13 | 0.23 | 1.2
COc1cc(-c2ccc3ncc(C(C)=O)c(N4CCC(CN(C)C)CC4)c3c2)cc(Cl)c1O [Example 305, 1-[6-(3-chloro-4-hydroxy-5-methoxyphenyl)-4-{4-[(dimethylamino)methyl]piperidin-1-yl}quinolin-3-yl]ethanone] |  |  |  |  |  | 0.0022 | 0.33 | 0.21 | 0.14 | 3.6
N[C@H]1CC[C@H](Nc2c(C(=O)C3CC3)cnc3ccc(-c4cc(Cl)c(O)c(Cl)c4)cc23)CC1 [Example 157(a), {4-[trans-4-Aminocyclohexylamino]-6-(3,5-dichloro-4-hydroxyphenyl)quinolin-3-yl}(cyclopropyl)methanone] |  |  |  |  |  | 0.0076 | 0.33 | 0.15 | 0.57 | 3.7
CCN(CC)[C@H]1CC[C@H](Nc2c(C(=O)C3CC3)cnc3ccc(-c4cc(Cl)c(O)c(OC)c4)cc23)CC1 [Example 314, {6-(3-Chloro-4-hydroxy-5-methoxyphenyl)-4-[trans-4-(diethylamino)cyclohexylamino]quinolin-3-yl}(cyclopropyl)methanone] |  |  |  |  |  | 0.0031 | 0.73 | 0.16 | 0.22 | 4.3
CN1CCN(C2CCN(c3c(C(=O)C4CC4)cnc4ccc(-c5cc(F)c(O)c(Cl)c5)cc34)CC2)CC1 [Example 349, {6-(3-Chloro-5-fluoro-4-hydroxyphenyl)-4-[4-(4-methylpiperazin-1-yl)piperidin-1-yl]quinolin-3-yl}(cyclopropyl)methanone] |  |  |  |  |  | 0.0046 | 0.91 | 0.49 | 0.98 | 5.8
COc1cc(-c2ccc3ncc(C(=O)C4CC4)c(N4CCC(CN(C)C)CC4)c3c2)cc(Cl)c1O [Example 276, [6-(3-Chloro-4-hydroxy-5-methoxyphenyl)-4-{4-[(dimethylamino)methyl]piperidin-1-yl}quinolin-3-yl](cyclopropyl)methanone] |  |  |  |  |  | 0.0008 | 0.58 | 0.16 | 0.21 | 1.8
CC(C)C(=O)c1cnc2ccc(-c3ccc(C#N)nc3)cc2c1N[C@H]1CC[C@H](N)CC1 [Example 108, 5-{4-[trans-4-Aminocyclohexylamino]-3-isobutyrylquinolin-6-yl}picolinonitrile] |  |  |  |  |  | 0.03 | 14 | 6.1 | 13 | 15
N[C@H]1CC[C@H](Nc2c(C(=O)C3CC3)cnc3ccc(-c4ccncc4)cc23)CC1 [Example 212, {4-[trans-4-Aminocyclohexylamino]-6-(pyridin-4-yl)quinolin-3-yl}(cyclopropyl)methanone] |  |  |  |  |  | 0.054 | 2.5 | 2.7 | 0.99 | 7.2
CC(C)C(=O)c1cnc2ccc(-c3cc(Cl)c(O)c(Cl)c3)cc2c1N[C@H]1CC[C@H](N)CC1 [Example 225(a), 1-{4-[trans-4-Aminocyclohexylamino]-6-(3,5-dichloro-4-hydroxyphenyl)quinolin-3-yl}-2-methylpropan-1-one] |  |  |  |  |  | 0.0025 | 0.18 | 0.073 | 0.43 | 2
CC(C)C(=O)c1cnc2ccc(-c3cc(F)c(O)c(Cl)c3)cc2c1N1CCC(CN2CCCC2)CC1 [Example 323, 1-{6-(3-Chloro-5-fluoro-4-hydroxyphenyl)-4-[4-(pyrrolidin-1-ylmethyl)piperidin-1-yl]quinolin-3-yl}-2-methylpropan-1-one] |  |  |  |  |  | 0.013 | 1.5 | 0.63 | 0.87 | 1.2
CC(C1CCN(c2c(C(=O)C3CC3)cnc3ccc(-c4cc(F)c(O)c(Cl)c4)cc23)CC1)N(C)C (centres unmarked) [Example 269, [6-(3-Chloro-5-fluoro-4-hydroxyphenyl)-4-{4-[1-(dimethylamino)ethyl]piperidin-1-yl}quinolin-3-yl](cyclopropyl)methanone] |  |  |  |  |  | 0.0037 | 0.5 | 0.22 | 0.44 | 1.3
N[C@H]1CC[C@H](Nc2c(C(=O)C3CC3)cnc3ccc(-c4ccc(O)cc4)cc23)CC1 [Example 55, {4-[trans-4-Aminocyclohexylamino]-6-(4-hydroxyphenyl)quinolin-3-yl}(cyclopropyl)methanone] |  |  |  |  |  | 0.021 | 0.43 | 0.2 | 0.48 | 2
